Reference: paper PMC5218480 (PLoS ONE, 2017)

Tested on: MV-4-11 cells
Assay: Gene expression microarray analysis (Affymetrix PrimeView) and GSEA
Format: cell-based, human
Parameters: RFU PODN (11730768_x_at) / Fold change /veh PODN (11730768_x_at) / RFU LINC00158 (11744669_a_at) / Fold change /veh LINC00158 (11744669_a_at) / RFU DUSP10 (11751237_a_at) / Fold change /veh DUSP10 (11751237_a_at) / RFU ID3 (11757404_x_at) / Fold change /veh ID3 (11757404_x_at) / RFU PLEKHG5 (11737974_s_at) / Fold change /veh PLEKHG5 (11737974_s_at) / RFU LRRC4B (11730491_at) / Fold change /veh LRRC4B (11730491_at) / RFU GIMAP4 (11747438_a_at) / Fold change /veh GIMAP4 (11747438_a_at) / RFU KRT8 (11758183_x_at) / Fold change /veh KRT8 (11758183_x_at) / RFU CNN1 (11734310_a_at) / Fold change /veh CNN1 (11734310_a_at) / RFU VPS37D (11726825_at) / Fold change /veh VPS37D (11726825_at) / RFU C10orf10 (11716522_x_at) / Fold change /veh C10orf10 (11716522_x_at) / RFU KIR2DL2 /// KIR2DL4 /// KIR2DL5A /// KIR2DL5B /// KIR2DS1 /// KIR2DS2 /// KIR2DS3 /// KIR2DS4 /// KIR3DL3 /// KIR3DL3 /// KIR3DS1 (11738374_at) / Fold change /veh KIR2DL2 /// KIR2DL4 /// KIR2DL5A /// KIR2DL5B /// KIR2DS1 /// KIR2DS2 /// KIR2DS3 /// KIR2DS4 /// KIR3DL3 /// KIR3DL3 /// KIR3DS1 (11738374_at) / RFU C1QL1 (11718748_at) / Fold change /veh C1QL1 (11718748_at) / RFU TMPRSS4 (11747572_a_at) / Fold change /veh TMPRSS4 (11747572_a_at) / RFU HAMP (11756126_x_at) / Fold change /veh HAMP (11756126_x_at) / RFU RNFT2 (11725882_a_at) / Fold change /veh RNFT2 (11725882_a_at) / RFU NR4A2 (11747474_a_at) / Fold change /veh NR4A2 (11747474_a_at) / RFU ABCC12 (11746883_a_at) / Fold change /veh ABCC12 (11746883_a_at) / RFU TMEM136 (11760407_x_at) / Fold change /veh TMEM136 (11760407_x_at) / RFU CLDN22 /// WWC2 (11732394_at) / Fold change /veh CLDN22 /// WWC2 (11732394_at) / RFU HLA-DPB1 (11760878_x_at) / Fold change /veh HLA-DPB1 (11760878_x_at) / RFU SPINT1 (11716480_a_at) / Fold change /veh SPINT1 (11716480_a_at) / RFU GAP43 (11754022_s_at) / Fold change /veh GAP43 (11754022_s_at) / RFU A4GNT (11735810_at) / Fold change /veh A4GNT (11735810_at) / RFU PRB3 (11715151_x_at) / Fold change /veh PRB3 (11715151_x_at) / RFU TUBB4B (11761932_at) / Fold change /veh TUBB4B (11761932_at) / RFU CAPN14 (11732068_a_at) / Fold change /veh CAPN14 (11732068_a_at) / RFU TMCC2 (11721928_a_at) / Fold change /veh TMCC2 (11721928_a_at) / RFU IRGQ (11745062_a_at) / Fold change /veh IRGQ (11745062_a_at) / RFU FAM174B (11720279_a_at) / Fold change /veh FAM174B (11720279_a_at) / RFU TMPRSS4 (11748680_a_at) / Fold change /veh TMPRSS4 (11748680_a_at) / RFU FAM212B (11763350_a_at) / Fold change /veh FAM212B (11763350_a_at) / RFU PLEKHG5 (11743358_a_at) / Fold change /veh PLEKHG5 (11743358_a_at) / RFU ZSCAN30 (11745921_a_at) / Fold change /veh ZSCAN30 (11745921_a_at) / RFU CMKLR1 (11741424_a_at) / Fold change /veh CMKLR1 (11741424_a_at) / RFU LOC101060620 /// MAPK8IP1 (11723275_at) / Fold change /veh LOC101060620 /// MAPK8IP1 (11723275_at) / RFU SPTSSB (11747773_x_at) / Fold change /veh SPTSSB (11747773_x_at) / RFU PRSS12 (11739890_at) / Fold change /veh PRSS12 (11739890_at) / RFU BIN1 (11741810_x_at) / Fold change /veh BIN1 (11741810_x_at) / RFU WNT11 (11732464_a_at) / Fold change /veh WNT11 (11732464_a_at) / RFU C10orf10 (11716521_a_at) / Fold change /veh C10orf10 (11716521_a_at) / RFU C5orf56 (11738089_at) / Fold change /veh C5orf56 (11738089_at) / RFU CYB561 (11721691_x_at) / Fold change /veh CYB561 (11721691_x_at) / RFU ANKRD19P (11752326_a_at) / Fold change /veh ANKRD19P (11752326_a_at) / RFU OR2T12 /// OR2T33 /// OR2T8 (11738714_s_at) / Fold change /veh OR2T12 /// OR2T33 /// OR2T8 (11738714_s_at) / RFU VCAN (11748164_a_at) / Fold change /veh VCAN (11748164_a_at) / RFU JSRP1 (11732532_at) / Fold change /veh JSRP1 (11732532_at) / RFU KRTAP10-11 (11738290_x_at) / Fold change /veh KRTAP10-11 (11738290_x_at) / RFU MYO3A (11730013_a_at) / Fold change /veh MYO3A (11730013_a_at) / RFU EBF3 (11725865_a_at) / Fold change /veh EBF3 (11725865_a_at) / RFU CAMK2N1 (11719241_x_at) / Fold change /veh CAMK2N1 (11719241_x_at) / RFU C5orf56 (11738088_a_at) / Fold change /veh C5orf56 (11738088_a_at) / RFU OLFML3 (11715873_a_at) / Fold change /veh OLFML3 (11715873_a_at) / RFU LOC100653217 /// NTM (11731650_a_at) / Fold change /veh LOC100653217 /// NTM (11731650_a_at) / RFU MAPK11 (11762145_a_at) / Fold change /veh MAPK11 (11762145_a_at) / RFU FIZ1 (11724087_x_at) / Fold change /veh FIZ1 (11724087_x_at) / RFU OASL (11726364_x_at) / Fold change /veh OASL (11726364_x_at) / RFU SOX15 (11748057_x_at) / Fold change /veh SOX15 (11748057_x_at) / RFU CD79A (11719716_a_at) / Fold change /veh CD79A (11719716_a_at) / RFU HIST1H1D (11736915_at) / Fold change /veh HIST1H1D (11736915_at) / RFU CASKIN2 (11723855_a_at) / Fold change /veh CASKIN2 (11723855_a_at) / RFU LOC730098 (11760151_x_at) / Fold change /veh LOC730098 (11760151_x_at) / RFU OR4N2 (11742367_at) / Fold change /veh OR4N2 (11742367_at) / RFU PRRT2 (11749266_a_at) / Fold change /veh PRRT2 (11749266_a_at) / RFU SNX32 (11753110_a_at) / Fold change /veh SNX32 (11753110_a_at) / RFU CDHR5 (11726645_a_at) / Fold change /veh CDHR5 (11726645_a_at) / RFU RCAN1 (11760418_a_at) / Fold change /veh RCAN1 (11760418_a_at) / RFU FAM167A (11723789_a_at) / Fold change /veh FAM167A (11723789_a_at) / RFU FAM26E (11764081_at) / Fold change /veh FAM26E (11764081_at) / RFU ISYNA1 (11749810_s_at) / Fold change /veh ISYNA1 (11749810_s_at) / RFU ACY1 (11761880_at) / Fold change /veh ACY1 (11761880_at) / RFU 11764098_at / Fold change /veh 11764098_at / RFU SAMD14 (11745864_x_at) / Fold change /veh SAMD14 (11745864_x_at) / RFU NPB (11741838_a_at) / Fold change /veh NPB (11741838_a_at) / RFU TMPRSS6 (11731388_a_at) / Fold change /veh TMPRSS6 (11731388_a_at) / RFU KRTAP10-2 (11738614_at) / Fold change /veh KRTAP10-2 (11738614_at) / RFU ARHGAP8 /// PRR5-ARHGAP8 (11727945_x_at) / Fold change /veh ARHGAP8 /// PRR5-ARHGAP8 (11727945_x_at) / RFU KRTAP5-7 /// NADSYN1 (11734609_at) / Fold change /veh KRTAP5-7 /// NADSYN1 (11734609_at) / RFU RASL12 (11751679_a_at) / Fold change /veh RASL12 (11751679_a_at) / RFU CDKN2B (11736163_a_at) / Fold change /veh CDKN2B (11736163_a_at) / RFU PRF1 (11729649_at) / Fold change /veh PRF1 (11729649_at) / RFU, ZNF638 /// ZNF638-IT1 / Fold change vs veh, ZNF638 /// ZNF638-IT1 / RFU, PANK3 / Fold change vs veh, PANK3 / RFU, SH3YL1 / Fold change vs veh, SH3YL1 / RFU, ZEB2 / Fold change vs veh, ZEB2 / RFU, NRIP1 / Fold change vs veh, NRIP1 / RFU, PTTG1IP / Fold change vs veh, PTTG1IP / RFU, CAPN2 / Fold change vs veh, CAPN2 / RFU, MED14 / Fold change vs veh, MED14 / RFU, SNORA58 / Fold change vs veh, SNORA58 / RFU, C1orf63 / Fold change vs veh, C1orf63 / RFU, LRRFIP1 / Fold change vs veh, LRRFIP1 / RFU, NDUFAF7 / Fold change vs veh, NDUFAF7 / RFU, SLC12A2 / Fold change vs veh, SLC12A2 / RFU, IBTK / Fold change vs veh, IBTK / RFU, ESF1 / Fold change vs veh, ESF1 / Fold change vs veh, TMEM50B / RFU, TAOK1 / Fold change vs veh, TAOK1 / RFU, ACBD3 / Fold change vs veh, ACBD3 / RFU, TMA16 / Fold change vs veh, TMA16 / RFU, RWDD3 / Fold change vs veh, RWDD3 / RFU, BCAT1 / Fold change vs veh, BCAT1 / RFU, EDEM3 / Fold change vs veh, EDEM3 / RFU, TMEM33 / Fold change vs veh, TMEM33 / RFU, WDR75 / Fold change vs veh, WDR75 / RFU, AHCTF1 / Fold change vs veh, AHCTF1 / RFU, TFRC / Fold change vs veh, TFRC / RFU, ZDHHC17 / Fold change vs veh, ZDHHC17 / RFU, NOM1 / Fold change vs veh, NOM1 / RFU, ARL8B / Fold change vs veh, ARL8B / RFU, ZBTB11 / Fold change vs veh, ZBTB11 / RFU, TAMM41 / Fold change vs veh, TAMM41 / RFU, KIAA1704 /// LOC100996395 / Fold change vs veh, KIAA1704 /// LOC100996395 / RFU, ING1 / Fold change vs veh, ING1 / RFU, TRMT61B / Fold change vs veh, TRMT61B / RFU, FUBP3 / Fold change vs veh, FUBP3 / RFU, TP53 / Fold change vs veh, TP53 / RFU, TNKS2 / Fold change vs veh, TNKS2 / RFU, ZFP14 / Fold change vs veh, ZFP14 / RFU, ACTR2 / Fold change vs veh, ACTR2 / RFU, PPP3R1 / Fold change vs veh, PPP3R1 / RFU, PIK3R1 / Fold change vs veh, PIK3R1 / RFU, HNRNPA1 / Fold change vs veh, HNRNPA1 / RFU, RNF170 / Fold change vs veh, RNF170 / RFU, ZNF28 / Fold change vs veh, ZNF28 / RFU, RNGTT / Fold change vs veh, RNGTT / RFU, OGT / Fold change vs veh, OGT / RFU, BRD1 / Fold change vs veh, BRD1 / RFU, MARS / Fold change vs veh, MARS / RFU, ZNF655 / Fold change vs veh, ZNF655 / RFU, FAHD1 / Fold change vs veh, FAHD1 / RFU, BDP1 / Fold change vs veh, BDP1 / RFU, LRRCC1 / Fold change vs veh, LRRCC1 / RFU, ARID1A / Fold change vs veh, ARID1A / RFU, ZNF146 / Fold change vs veh, ZNF146 / RFU, ZNF330 / Fold change vs veh, ZNF330 / RFU, GPN3 / Fold change vs veh, GPN3 / RFU, C9orf123 / Fold change vs veh, C9orf123 / RFU, N4BP2L2 / Fold change vs veh, N4BP2L2 / RFU, ARFIP1 / Fold change vs veh, ARFIP1 / RFU, FAM179B / Fold change vs veh, FAM179B / RFU, BCL10 / Fold change vs veh, BCL10 / RFU, UHRF1BP1L / Fold change vs veh, UHRF1BP1L / RFU, BET1 / Fold change vs veh, BET1 / RFU, CNOT2 / Fold change vs veh, CNOT2 / RFU, ZNF268 / Fold change vs veh, ZNF268 / Fold change vs veh, ZNF507 / RFU, DGCR2 / Fold change vs veh, DGCR2 / RFU, WDSUB1 / Fold change vs veh, WDSUB1 / Fold change vs veh, HSP90B1 /// MIR3652 / RFU, ADSS / Fold change vs veh, ADSS / RFU, GK / Fold change vs veh, GK / RFU, ZNF148 / Fold change vs veh, ZNF148 / RFU, TAF9 / Fold change vs veh, TAF9 / RFU, SLC1A5 / Fold change vs veh, SLC1A5 / RFU, SLMO2 / Fold change vs veh, SLMO2 / RFU, ABCC4 / Fold change vs veh, ABCC4 / RFU, LOC101060439 /// RAP1B / Fold change vs veh, LOC101060439 /// RAP1B / RFU, RFX7 / Fold change vs veh, RFX7 / RFU, GTPBP10 / Fold change vs veh, GTPBP10 / RFU, CNEP1R1 / Fold change vs veh, CNEP1R1 / RFU, BIVM-ERCC5 /// ERCC5 / Fold change vs veh, BIVM-ERCC5 /// ERCC5 / RFU, ILF3 / Fold change vs veh, ILF3 / RFU 11762660_at / Fold change /veh 11762660_at / RFU VCAN (11757783_s_at) / Fold change /veh VCAN (11757783_s_at) / RFU DDX43 (11728927_at) / Fold change /veh DDX43 (11728927_at) / RFU KRT8 (11758188_x_at) / Fold change /veh KRT8 (11758188_x_at) / RFU NKD1 (11759106_at) / Fold change /veh NKD1 (11759106_at) / RFU SRD5A1 (11742802_a_at) / Fold change /veh SRD5A1 (11742802_a_at) / RFU TPSAB1 /// TPSB2 (11721975_s_at) / Fold change /veh TPSAB1 /// TPSB2 (11721975_s_at) / RFU GSTM3 (11746129_a_at) / Fold change /veh GSTM3 (11746129_a_at) / RFU IL23R (11737362_x_at) / Fold change /veh IL23R (11737362_x_at) / RFU TMEM51 (11727254_a_at) / Fold change /veh TMEM51 (11727254_a_at) / RFU PIWIL2 (11732686_x_at) / Fold change /veh PIWIL2 (11732686_x_at) / RFU ORM1 (11744905_x_at) / Fold change /veh ORM1 (11744905_x_at) / RFU CCDC152 (11743942_at) / Fold change /veh CCDC152 (11743942_at) / RFU ECM1 (11717891_a_at) / Fold change /veh ECM1 (11717891_a_at) / RFU IL23R (11748794_a_at) / Fold change /veh IL23R (11748794_a_at) / RFU TNFAIP8L3 (11732012_x_at) / Fold change /veh TNFAIP8L3 (11732012_x_at) / RFU MBOAT4 (11741988_at) / Fold change /veh MBOAT4 (11741988_at) / RFU 11764193_at / Fold change /veh 11764193_at / RFU TMEM53 (11763286_at) / Fold change /veh TMEM53 (11763286_at) / RFU MAGEB2 (11727129_at) / Fold change /veh MAGEB2 (11727129_at) / RFU TMEM200A (11744735_a_at) / Fold change /veh TMEM200A (11744735_a_at) / RFU CCDC152 (11751479_a_at) / Fold change /veh CCDC152 (11751479_a_at) / RFU FAM211A (11726209_a_at) / Fold change /veh FAM211A (11726209_a_at) / RFU RGS16 (11746705_a_at) / Fold change /veh RGS16 (11746705_a_at) / RFU VCAN (11755009_s_at) / Fold change /veh VCAN (11755009_s_at) / RFU RHOB (11743442_s_at) / Fold change /veh RHOB (11743442_s_at) / RFU RGS16 (11720943_a_at) / Fold change /veh RGS16 (11720943_a_at) / RFU RGS16 (11720944_at) / Fold change /veh RGS16 (11720944_at) / RFU, VPS4B / Fold change vs veh, VPS4B / RFU, CREB1 / Fold change vs veh, CREB1 / RFU, DNAJC13 / Fold change vs veh, DNAJC13 / RFU, GNAQ / Fold change vs veh, GNAQ / RFU, CDK5R1 / Fold change vs veh, CDK5R1 / RFU, ZRANB3 / Fold change vs veh, ZRANB3 / RFU, CUL4A / Fold change vs veh, CUL4A / RFU, CCNY / Fold change vs veh, CCNY / RFU, UFL1 / Fold change vs veh, UFL1 / RFU, COG3 / Fold change vs veh, COG3 / RFU, DIAPH2 / Fold change vs veh, DIAPH2 / RFU, SKA2 / Fold change vs veh, SKA2 / RFU, AFF3 / Fold change vs veh, AFF3 / RFU, LMF1 / Fold change vs veh, LMF1 / RFU, IPO11 / Fold change vs veh, IPO11 / RFU, DFFB / Fold change vs veh, DFFB / RFU, FOXP1 / Fold change vs veh, FOXP1 / RFU, CARD8 / Fold change vs veh, CARD8 / RFU, STRN3 / Fold change vs veh, STRN3 / RFU, ADK / Fold change vs veh, ADK / RFU, RASSF2 / Fold change vs veh, RASSF2 / RFU, WIPF1 / Fold change vs veh, WIPF1 / RFU, LARP1B / Fold change vs veh, LARP1B / RFU, RASA1 / Fold change vs veh, RASA1 / RFU, RB1 / Fold change vs veh, RB1 / RFU, PPFIA1 / Fold change vs veh, PPFIA1 / RFU, MAT2A / Fold change vs veh, MAT2A / RFU, CCT5 / Fold change vs veh, CCT5 / RFU, WDR92 / Fold change vs veh, WDR92 / RFU, CUX1 / Fold change vs veh, CUX1 / RFU, TTC7A / Fold change vs veh, TTC7A / RFU, TMEM135 / Fold change vs veh, TMEM135 / RFU, DEPTOR / Fold change vs veh, DEPTOR / RFU, CPM / Fold change vs veh, CPM / RFU, DNAJB6 / Fold change vs veh, DNAJB6 / RFU, CACNA2D3 / Fold change vs veh, CACNA2D3 / RFU, DTX4 / Fold change vs veh, DTX4 / RFU, TFCP2 / Fold change vs veh, TFCP2 / RFU, GMCL1 /// GMCL1P1 / Fold change vs veh, GMCL1 /// GMCL1P1 / RFU, AEBP2 / Fold change vs veh, AEBP2 / RFU, SNHG1 /// SNORD22 /// SNORD25 /// SNORD26 /// SNORD27 /// SNORD28 /// SNORD29 /// SNORD31 / Fold change vs veh, SNHG1 /// SNORD22 /// SNORD25 /// SNORD26 /// SNORD27 /// SNORD28 /// SNORD29 /// SNORD31 / Fold change (Aza/veh), C12orf56 (ProbeSet 11735607_a_at) / Fold change (ACY-1035/veh), C12orf56 (ProbeSet 11735607_a_at) / Fold change (Aza/veh), FGFR1OP (ProbeSet 11751329_s_at) / Fold change (ACY-1035/veh), FGFR1OP (ProbeSet 11751329_s_at) / Fold change (Aza/veh), VPS36 (ProbeSet 11739960_a_at) / Fold change (ACY-1035/veh), VPS36 (ProbeSet 11739960_a_at) / RFU SYPL1 (11715823_x_at) / Fold change /veh SYPL1 (11715823_x_at) / RFU IGFBP7 (11715501_s_at) / Fold change /veh IGFBP7 (11715501_s_at) / RFU REEP3 (11722064_at) / Fold change /veh REEP3 (11722064_at) / RFU IGLL1 (11728026_x_at) / Fold change /veh IGLL1 (11728026_x_at): dose or concentration left out as unconfirmed
Settings: MV-4-11 cells, 48 hours

With Nc1ccc(-c2cccs2)cc1NC(=O)c1ccc2c(c1)cc(C1CC1)n2CCN1CCOCC1 [ACY-1035] the “RFU CDKN2B (11736163_a_at)” value was 9.39 RFU.
